Results taken from patent publication US6291673A, “Folic acid derivatives” (Purdue Research Foundation, priority 2000, dated 2001).
pKd: −log10 of the molar value. Where “and” joins values, the source holds several entries; their conditions need not be identical. Identical values can stand only once.

Legend:
carboxypeptidase G [1] = test: Carboxypeptidase G enantiospecific hydrolysis of folic acid derivatives (HPLC of released pteroic acid); format: biochemical; settings: Tris buffer with ZnCl2, 37° C., 2 h, pyrofolates and monoesters first hydrolysed in 0.25 M NaOH, error about ±2-3%
Procedure: Since it had been previously observed that guanidine bases are capable of racemizing acylated glutamates (under more forcing conditions than were employed in the reactions listed in Table 2), the optical purity of the folic acid 1 (=25a) and several of its derivatives which had been produced was evaluated. […] In order to assay the pyrofolates 8 and 9 as well as the α- and γ-monoesters of folic acid L-33a and L-33c, an initial mild basic hydrolysis was required prior to the enzyme assay. […] Control reactions on synthetic D-1=25a and DL-1=25a (Table 3, Entries 3,4) serve to confirm the error limits of the enzymatic method at about ±2-3%.
Determination of optical purity of folate derivatives listed in Table 3 using enzymatic hydrolysis with carboxypeptidase G:30:
The folic acid derivative (~2.5 mg) was dissolved in 1 mL Tris buffer containing 20 μg ZnCl2 and 50 microunit enzyme (Sigma Chemical Company) was added. The solution was incubated at 37° C. for 2 h. A 20 μL sample was tested by HPLC on a […] MICROSORB C-18 reverse phase column (Eluent A: 5 mM phosphate buffer; Eluent B: acetonitrile; flow rate: 1 mL/min; gradient: 0-5 min, 5% B, 10-15, 25% B). Folic acid was eluted at 4.1 min, pteroic acid at 10.6 min, methotrexate at 10.8 min, and amino-N10-methyl pteroic acid at 11.9 min. Peak area was used as the standard for analysis.
For folate derivatives, ~5 mg was first dissolved in 1 mL 0.25 M NaOH and incubated at room temperature for 1 h. Then the solution was acidified by 1 M HCl until precipitation. After centrifugation, washing, and drying, the ~2.5 mg yellow pellet was dissolved in 1 mL Tris buffer and reacted with enzyme under the conditions described above.

[2] = target: T1, cell surface folate receptors (Homo sapiens, UniProt P15328); test: Affinities of FITC-EDA-folate for cell surface folate receptors on KB cells; format: binding
T1 construct: KB cells overexpressing the receptor; endogenous in cells; host or cells: KB cells
T1 sequence (P15328 25-257): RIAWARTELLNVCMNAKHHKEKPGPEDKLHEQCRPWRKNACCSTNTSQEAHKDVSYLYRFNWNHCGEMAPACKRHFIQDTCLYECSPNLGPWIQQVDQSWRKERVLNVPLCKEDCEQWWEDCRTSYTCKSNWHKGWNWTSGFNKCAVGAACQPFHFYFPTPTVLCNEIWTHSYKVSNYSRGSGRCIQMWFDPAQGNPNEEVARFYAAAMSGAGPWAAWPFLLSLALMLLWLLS
Procedure: To determine the affinities of EDA-folate for cell surface folate receptors, the α- and γ-isomers were labeled with the fluorophore FITC and incubated with KB cells overexpressing the receptor. […] The low level of non-specific uptake observed with both isomers was probably due to the hydrophobicity of the FITC conjugates.

carboxypeptidase G [3] = settings: footnote c of Table 3; cited from earlier work
[4] = Storage stability of pteroylazide 27; format: physicochemical
From the text: The known impurities include ~4% pteroic acid 10, ~2% of the aniline (PteNH2) apparently resulting from Curtius rearrangement of 27, ~2% of pteroylamide (PteCO--NH2 11); and <1% of folic acid 1. […] Unlike some acyl azides, pteroylazide 27 is quite stable; samples of the lemon-yellow solid may be stored in the dark in a freezer for at least 12 months without appreciable decomposition.

| SMILES | % Hydrolysis (carboxypeptidase G [1]) | also measured |
| --- | --- | --- |
| Nc1nc2ncc(CNc3ccc(C(=O)NC(CCC(=O)O)C(=O)O)cc3)nc2c(=O)[nH]1 (racemic) [D, L-25a] | 52.3% |  |
| Nc1nc2ncc(CNc3ccc(C(=O)N[C@@H](CCC(=O)O)C(=O)O)cc3)nc2c(=O)[nH]1 [Compound L-1, Folic acid] | 96.7% | competition with the receptor binding of FITC-EDA-folate(γ) ([2]; excess folic acid in the incubation medium, KB cells): effectively competed; % Hydrolysis (carboxypeptidase G [1]; listed as L-25a): 98.4% and 98.6% |
| Nc1nc(O)c2nc(CNc3ccc(C(=O)N[C@@H](CCC(=O)NCCNC(=S)Nc4ccc5c(c4)C(=O)OC54c5ccc(O)cc5Oc5cc(O)ccc54)C(=O)O)cc3)cnc2n1 [FITC-EDA-folate(γ)] |  | pKd ([2]; KB cells overexpressing the receptor, read-out: concentration required to reach 50% maximal binding): 8.80 |
| CC(C)=CCOC(=O)[C@H](CCC(=O)O)NC(=O)c1ccc(NCc2cnc3nc(N)[nH]c(=O)c3n2)cc1 [Compound L-33c] | 85.9% and 96.7% |  |
| Nc1nc2ncc(CNc3ccc(C(=O)N[C@@H](CCC(=O)O)C(=O)NCCNC(=S)Nc4ccc5c(c4)C(=O)OC54c5ccc(O)cc5Oc5cc(O)ccc54)cc3)nc2c(=O)[nH]1 [α-isomer of FITC-EDA-folate] |  | affinity for the cell surface receptors ([2]; KB cells overexpressing the receptor): virtually no affinity |
| CN(Cc1cnc2nc(N)nc(N)c2n1)c1ccc(C(=O)N[C@H](CCC(=O)O)C(=O)O)cc1 [Compound D-34d] |  | hydrolysis by carboxypeptidase G (carboxypeptidase G [3]): not to be hydrolyzed |
| [N-]=[N+]=NC(=O)c1ccc(NCc2cnc3nc(N)[nH]c(=O)c3n2)cc1 [Compound 27, Pteroylazide] |  | shelf life ([4]; room temperature, protected from light): at least a month; HPLC profile after exposure to light ([4]; samples exposed to light (darken appreciably)): not substantially degraded; storage time without appreciable decomposition ([4]; solid, in the dark in a freezer): at least 12 months |
| CN(Cc1cnc2nc(N)nc(N)c2n1)c1ccc(C(=O)N[C@@H](CCC(=O)O)C(=O)O)cc1 [Compound L-34d, L-methotrexate, reference compound] | 96.1% and 99.2% |  |
| Nc1nc2ncc(CNc3ccc(C(=O)N[C@H](CCC(=O)O)C(=O)O)cc3)nc2c(=O)[nH]1 [Compound D-25a] | 3.0% |  |
| Nc1nc2ncc(CNc3ccc(C(=O)N4C(=O)CCC4C(=O)O)cc3)nc2c(=O)[nH]1 (centres unmarked) [Compound 9, Pyrofolic acid] | 51.7% |  |
| COC(=O)CC[C@H](NC(=O)c1ccc(NCc2cnc3nc(N)[nH]c(=O)c3n2)cc1)C(=O)O [Compound L-33a, Tetramethylguanidinium (L)-methyl folate (γ)] | 96.8% |  |
| Nc1nc2ncc(CN(C(=O)C(F)(F)F)c3ccc(C(=O)N4C(=O)CCC4C(=O)O)cc3)nc2c(=O)[nH]1 (centres unmarked) [Compound 8, N10-Trifluoroacetylpyrofolic acid] | 49.5% |  |
| COC(=O)CCC(NC(=O)c1ccc(NCc2cnc3nc(N)[nH]c(=O)c3n2)cc1)C(=O)O (racemic) [DL-33a, (DL)-methyl folate (γ)] | 54.4% |  |
